Data set [1] has as its system Hepatitis C virus. It is filed as functional, Hepacivirus hominis, genotype 2a (JFH-AM71), Huh7-J20. The conditions noted are these: dose 100 µM; time 72 hrs.
Data set [2] deals with Zika virus. It is filed as functional, H/PAN/2016/BEI-259634, Huh7.5.
The test system of data set [3] is Zika virus. It is filed as functional, H/PAN/2016/BEI-259634, Vero.
The nature of data set [4]: in vitro. The conditions noted are these: human, Huh7-J20 cells.
Data set [5] is described as follows: in vitro. As to conditions: monkey, Vero cells.
The nature of data set [6]: in vitro. The conditions noted are these: human, Huh7.5 cells.
Data set [7] deals with Hepatitis C virus. In words: microbe, parasite or virus in culture. The conditions noted are these: genotype 2a (JFH-AM71), Huh7-J20, 72 h.
Data set [8] has as its system Zika virus. The experiment in a line: microbe, parasite or virus in culture. The conditions noted are these: H/PAN/2016/BEI-259634, Huh7.5, 72 h.
In data set [9] the test system is Zika virus. In words: microbe, parasite or virus in culture. The conditions noted are these: H/PAN/2016/BEI-259634, Vero, 72 h.
Data set [10] concerns Hepatitis C virus. It is filed as functional, Hepacivirus hominis, genotype 2a (JFH-AM71), Huh7-J20. As to conditions: dose 0.045 µM; time 72 hrs.
The subject of data set [11] is Zika virus. It is filed as functional, H/PAN/2016/BEI-259634, Huh7.5. The conditions noted are these: dose 50-100 µM; time 3 day; at 50 to 100 µM.
The subject of data set [12] is Zika virus. It is filed as functional, H/PAN/2016/BEI-259634, Vero. The conditions noted are these: dose 50-100 µM; time 3 day; at 50 to 100 µM.
[13] abbreviates: H/PAN/2016/BEI-259634, Huh7.5, dose 100.0 µM, time 3.0 day.

Activity calls are given as the source filed them. No cut-off for these calls is given here. Numbered stars: 1 amine (or outer) side, 2 acyl side, 3 side chain; on linkers, the order of the positions; unused ones are H or OH. Peptide text beside a SMILES is read from it. * marks the point of attachment. X1 = NC(=O)c1n[nH]nc1[C@@H]1O[C@H](COC(=O)CCC(=O)NCCCOCCOCCOCCCN*)[C@@H](O)[C@H]1O; Suc = O=C(CCC(=O)[*:2])[*:1]

In general, IC50 refers to the concentration at which inhibition is half-maximal.

As for `NC(=O)c1ncn([C@@H]2O[C@H](CO)[C@@H](O)[C@H]2O)n1` [RIBAVIRIN], the Activity in the data set with Hepatitis C virus [1] was 80%; with Zika virus [2] (dose 100 µM, time 3 day), 80%; with Zika virus [3] (dose 100 µM, time 3 day), 80%. The selectivity ratio worked out at 46.8 in “in vitro [4]”, 41.6 in “in vitro [5]” and 240 in the data set “in vitro [6]”. The figures for the IC50 with Hepatitis C virus [7], in the data set on Zika virus [8] and in the data set with Zika virus [9] were 21.8 µM, 6.9 µM and 29.9 µM, respectively.
In turn, `CCCNC(=O)c1n[nH]nc1[C@@H]1O[C@H](CO)[C@@H](O)[C@H]1O` displayed an Activity with Hepatitis C virus [1] of 45%. Besides, the result in the data set with Zika virus [2] (setting [13]) was Active. The selectivity ratio in the data set “in vitro [4]” is 7.3. The concentration for half-maximal inhibition (IC50) in the data set with Hepatitis C virus [7] came to 100 µM.
`CC[C@H](C)[C@H](NC(=O)[C@H](Cc1cnc[nH]1)NC(=O)[C@H](Cc1c[nH]c2ccccc12)NC(=O)[C@H](CO)NC(=O)CCC(=O)NCCCOCCOCCOCCCNC(=O)CCC(=O)OC[C@H]1O[C@@H](c2n[nH]nc2C(N)=O)[C@H](O)[C@@H]1O)C(=O)N[C@@H](CC(N)=O)C(=O)N[C@@H](CCCNC(=N)N)C(=O)N[C@H](C(=O)N[C@@H](C)C(=O)N[C@@H](CC(C)C)C(=O)N[C@@H](CC(N)=O)C(=O)N[C@@H](CO)C(=O)N[C@@H](CC(N)=O)C(=O)N[C@@H](CC(=O)O)C(=O)N[C@@H](CO)C(N)=O)[C@@H](C)O` ({X1-Suc}-SWHINRTALNSNDS-NH2) showed an Activity in the data set on Hepatitis C virus [10] of 45%.
For `NC(=O)c1n[nH]nc1[C@@H]1O[C@H](CO)[C@@H](O)[C@H]1O`, the Activity was 60% in the data set on Hepatitis C virus [1] and 20% with Zika virus [3] (dose 100 µM, time 3 day). The selectivity ratio in “in vitro [4]” came to 15.7. The IC50 in the data set on Hepatitis C virus [7] came out at 68 µM.
Consider `CC(=O)OC[C@H]1O[C@@H](c2n[nH]nc2C(N)=O)[C@H](OC(C)=O)[C@@H]1OC(C)=O`, for which the outcome in the data set with Zika virus [2] (setting [13]) was Active.
Regarding `O=C(NCCCO)c1n[nH]nc1[C@@H]1O[C@H](CO)[C@@H](O)[C@H]1O`, the Activity with Hepatitis C virus [1] is recorded as 45%; in the data set on Zika virus [3] (dose 100 µM, time 3 day), 20%. In the data set “in vitro [4]”, the selectivity ratio came out at 13.4. This compound displayed an IC50 with Hepatitis C virus [7] of 68 µM.
The compound `N=C(N)NCCC[C@H](NC(=O)[C@H](CCCNC(=N)N)NC(=O)[C@H](CCCNC(=N)N)NC(=O)[C@H](CCC(N)=O)NC(=O)[C@H](CCCNC(=N)N)NC(=O)[C@H](CCCNC(=N)N)NC(=O)[C@H](CCCCN)NC(=O)[C@H](CCCCN)NC(=O)[C@H](CCCNC(=N)N)NC(=O)CNC(=O)[C@H](Cc1ccc(O)cc1)NC(=O)CCC(=O)NCCCOCCOCCOCCCNC(=O)CCC(=O)OC[C@H]1O[C@@H](c2n[nH]nc2C(N)=O)[C@H](O)[C@@H]1O)C(N)=O` showed an Activity with Hepatitis C virus [10] of 45%.
For `O=C(NO)c1n[nH]nc1[C@@H]1O[C@H](CO)[C@@H](O)[C@H]1O`, the Activity with Hepatitis C virus [1] was 67%; with Zika virus [11], 70%; with Zika virus [12], 70%. In addition, the Activity result is “Active” in the data set on Zika virus [2] (setting [13]) and “Active” in the data set with Zika virus [3] (H/PAN/2016/BEI-259634, Vero, dose 100.0 µM, time 3.0 day). The selectivity ratio was determined as 16.8 in the data set “in vitro [4]”, 29.1 in the data set “in vitro [5]” and 23.8 in “in vitro [6]”. The IC50 in the data set on Hepatitis C virus [7] was found to be 49.1 µM; in the data set on Zika virus [8], 37.3 µM; with Zika virus [9], 33.2 µM.

The values are drawn from ChEMBL document CHEMBL5126587 (Bioorg Med Chem, 2022).
